Legend:
[1] = target: T1, recombinant human 17β-HSD1 (Homo sapiens, UniProt P14061); experiment: Inhibition of recombinant human 17β-HSD1 (HPLC assay, conversion of 3H-estrone to estradiol); assay type: biochemical; details: 30 nM 3H-estrone, 1 mM NADPH, 30 min at RT; for inhibition at 0.1 µM / inhibition at 1 µM: 0.5 h, read-out: inhibition of rec. 17β-HSD1
T1 construct: made in house; host or cells: Sf9 insect cells (baculovirus, Bac to Bac Expression System)
T1 sequence (P14061 1-328): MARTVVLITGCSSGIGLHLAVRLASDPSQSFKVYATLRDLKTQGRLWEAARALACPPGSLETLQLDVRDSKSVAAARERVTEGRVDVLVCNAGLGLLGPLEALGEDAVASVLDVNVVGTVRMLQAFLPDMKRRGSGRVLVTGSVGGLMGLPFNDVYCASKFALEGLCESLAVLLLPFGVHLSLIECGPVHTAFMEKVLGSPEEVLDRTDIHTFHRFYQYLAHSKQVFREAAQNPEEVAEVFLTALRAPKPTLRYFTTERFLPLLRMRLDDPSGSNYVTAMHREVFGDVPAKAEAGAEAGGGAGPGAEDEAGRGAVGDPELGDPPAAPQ
Experimental: Inhibition of the 17β-hydroxysteroid dehydrogenase type 1 enzyme 17β-HSD1 purification: Recombinant baculovirus was generated by the "Bac to Bac Expression System" (Invitrogen). Recombinant bacmid was transfected to Sf9 insect cells using "Cellfectin Reagent" (Invitrogen). 60h later cells were harvested; the microsomal fraction was isolated as described by Puranen et al. (1994). Aliquots were stored frozen until determination of enzymatic activity.
Assay - Inhibition of recombinant human 17β-HSD1: Recombinant protein (0.1 µg/ml) was incubated in 20 mM KH2PO4 pH 7.4 with 30 nM 3H-estrone and 1 mM NADPH for 30 min at RT, in the presence of potential inhibitors at concentrations of 1 µM or 0.1 µM. Inhibitor stock solutions were prepared in DMSO. Final concentration of DMSO was adjusted to 1 % in all samples. The enzyme reaction was stopped by addition of 10 % trichloroacetic acid (final concentration). Samples were centrifuged in a microtiter plate at 4000 rpm for 10 min. Supernatants were applied to reverse phase HPLC on a Waters Symmetry C18 column, equipped with a Waters Sentry Guard column. Isocratic HPLC runs were performed at RT at a flow rate of 1 ml/min of acetonitrile:water 48:52 as running solvent. Radioactivity was monitored in the eluate by a Packard Flow Scintillation Analyzer. Total radioactivity for estrone and estradiol were determined in each sample and percent conversion of estrone to estradiol was calculated according to the following formula: [formula] [formula]
The values "% inhibition" were determined for exemplified compounds, and the results are summarized in table 4 (for 17β-HSD1). table 4: HSD 1 inhibition values in % of selected compounds of formula I

[2] = target: T2, 17β-HSD3 (Homo sapiens, UniProt P37058); experiment: Inhibition of 17β-HSD3 in MCF-7 cell lines stably expressing the enzyme (HPLC, tritium labeled androstenedione); assay type: cell-based; details: MCF7, MCF-7 cells expressing 17β-HSD3, androstenedione 2 nM
T2 construct: expressed in transfected cells; host or cells: MCF-7 cells stably expressing 17β-HSD3
T2 sequence (P37058 1-310): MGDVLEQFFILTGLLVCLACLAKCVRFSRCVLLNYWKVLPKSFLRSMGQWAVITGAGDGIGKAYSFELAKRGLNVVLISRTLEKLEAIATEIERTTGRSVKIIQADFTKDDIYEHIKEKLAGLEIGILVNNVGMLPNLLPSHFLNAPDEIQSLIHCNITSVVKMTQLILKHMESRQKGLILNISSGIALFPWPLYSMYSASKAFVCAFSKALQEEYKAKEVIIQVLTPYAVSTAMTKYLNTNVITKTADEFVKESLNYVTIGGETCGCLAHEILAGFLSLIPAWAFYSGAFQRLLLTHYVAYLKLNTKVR
Experimental: The compounds were screened in respect of 17β-HSD3 enzyme activity in vitro on established MCF-7 cell lines, each stably expressing the 17β-HSD3 enzyme. The interconversion of substrate by 17β-HSD3 and the 17β-HSD3 inhibiting activity of chemical compounds in these cell lines were detected by HPLC system.
Varying amounts of the test compounds were incubated in the growth medium of the 17β-HSD3 expressing cells together tritium labeled androstenedione (2 nM). The medium samples were removed after exact incubation time and the reaction is stopped by trichloroacetic acid (TCA). The samples were analyzed by HPLC-coupled flow scintillation analysis.
Conversion: The 17β-HSD3 inhibiting activity of an individual test compound was calculated by comparing the conversion of a control sample without any test compound (referred to as "Negative Control") to the (reduced) conversion of the test sample containing the particular compound to be tested (referred to as "Test Sample"). [formula]
Two concentrations of each compound were used. The number of the compound refers to the numbers indicated in the Experimental Section.
The values "% inhibition" were determined for exemplified compounds, and the results are summarized in table 5 (HSD 3). table 5: 17β-HSD3 inhibition values in % of selected compounds of formula I

Molecule `C[C@]12CC[C@@H]3c4ccc(O)cc4CC[C@H]3[C@@H]1[C@H](CCn1cc(-c3ccc(OC(F)(F)F)cc3)nn1)CC2=O` [Compound 13, 3-Hydroxy-15β-{2-[4-(4-trifluoromethoxy-phenyl)-[1,2,3]triazol-1-yl]-ethyl}-estra-1,3,5(10)-trien-17-one] has an inhibition at 0.1 µM ([1]; 100 nM inhibitor) of 83% and an inhibition at 1 µM ([1]; 1 µM inhibitor) of 92%.
With `CC(C)CCc1cn(CC[C@@H]2CC(=O)[C@@]3(C)CC[C@@H]4c5ccc(O)cc5CC[C@H]4[C@H]23)nn1` [Compound 4, 3-Hydroxy-15β-{2-[4-(3-methyl-butyl)-[1,2,3]triazol-1-yl]-ethyl}-estra-1,3,5(10)-trien-17-one] the inhibition at 0.1 µM ([1]; 100 nM inhibitor) was 92%, the inhibition at 1 µM ([1]; 1 µM inhibitor) was 96% and the inhibition at 1 µM [2] was 5%. For the same molecule, the inhibition at 10 µM [2] was 40%.
Molecule `C[C@]12CC[C@@H]3c4ccc(O)cc4CC[C@H]3[C@@H]1[C@H](CCn1cc(CCc3ccccc3)nn1)CC2=O` [Compound 1, 3-Hydroxy-15ß-[2-(4-phenethyl-[1,2,3]triazol-1-yl)-ethyl]-estra-1,3,5(10)-trien-17-one] has an inhibition at 0.1 µM ([1]; 100 nM inhibitor) of 92% and an inhibition at 1 µM ([1]; 1 µM inhibitor) of 98%.
In the case of `C[C@]12CC[C@@H]3c4ccc(O)cc4CC[C@H]3[C@@H]1[C@H](CCn1cc(-c3cccc(O)c3)nn1)CC2=O` [Compound 2, 3-Hydroxy-15β-{2-[4-(3-hydroxy-phenyl)-[1,2,3]triazol-1-yl]-ethyl}-estra-1,3,5(10)-trien-17-one], the inhibition at 0.1 µM ([1]; 100 nM inhibitor) is reported as 88% and the inhibition at 1 µM ([1]; 1 µM inhibitor) is reported as 97%.
With `C[C@]12CC[C@@H]3c4ccc(O)cc4CC[C@H]3[C@@H]1[C@H](CCCn1cc(-c3ccc(F)cc3F)nn1)CC2=O` [Compound 28, 3-Hydroxy-15β-{3-[4-(2,4-difluoro-phenyl)-[1,2,3]triazol-1-yl]-propyl}-estra-1,3,5(10)-trien-17-one] the inhibition at 0.1 µM ([1]; 100 nM inhibitor) was 40% and the inhibition at 1 µM ([1]; 1 µM inhibitor) was 83%.
`C[C@]12CC[C@@H]3c4ccc(O)cc4CC[C@H]3[C@@H]1[C@H](CCn1cc(CC3CCCCC3)nn1)CC2=O` [Compound 6, 3-Hydroxy-15β-[2-(4-cyclohexylmethyl-[1,2,3]triazol-1-yl)-ethyl]-estra-1,3,5(10)-trien-17-one] was tested, and the inhibition at 0.1 µM ([1]; 100 nM inhibitor) was 92%, the inhibition at 1 µM ([1]; 1 µM inhibitor) was 94% and the inhibition at 1 µM [2] was 16%. For the same molecule, the inhibition at 10 µM [2] was 50%.
`C[C@]12CC[C@@H]3c4ccc(O)cc4CC[C@H]3[C@@H]1[C@H](CCn1cc(-c3ccc(C(F)(F)F)cc3)nn1)CC2=O` [Compound 10, 3-Hydroxy-15β-{2-[4-(4-trifluoromethyl-phenyl)-[1,2,3]triazol-1-yl]-ethyl}-estra-1,3,5(10)-trien-17-one] showed an inhibition at 0.1 µM ([1]; 100 nM inhibitor) of 83% and an inhibition at 1 µM ([1]; 1 µM inhibitor) of 93%.
Molecule `C[C@]12CC[C@@H]3c4ccc(O)cc4CC[C@H]3[C@@H]1[C@H](CCn1cc(-c3ccccc3F)nn1)CC2=O` [Compound 7, 3-Hydroxy-15β-{2-[4-(2-fluoro-phenyl)-[1,2,3]triazol-1-yl]-ethyl}-estra-1,3,5(10)-trien-17-one] has an inhibition at 0.1 µM ([1]; 100 nM inhibitor) of 81%, an inhibition at 1 µM ([1]; 1 µM inhibitor) of 94% and an inhibition at 1 µM [2] of 12%. It also gave an inhibition at 10 µM [2] of 36%.
`CCCCn1cc(CCCC2CC(=O)[C@@]3(C)CC[C@@H]4c5ccc(O)cc5CC[C@H]4[C@H]23)nn1` (some centres unmarked) [Compound 300, 15-[3-(1-butyl-1H-1,2,3-triazol-4-yl)propyl]-3-hydroxyestra-1(10),2,4-trien-17-one] gave an inhibition at 0.1 µM ([1]; 100 nM inhibitor) of 85%, an inhibition at 1 µM ([1]; 1 µM inhibitor) of 88% and an inhibition at 1 µM [2] of 29%. It also gave an inhibition at 10 µM [2] of 61%.
`COC(=O)c1ccc(-c2cn(CCC[C@@H]3CC(=O)[C@@]4(C)CC[C@@H]5c6ccc(OC)cc6CC[C@H]5[C@H]34)nn2)cc1` [Compound 89, 4-{1-[3-(3-Methoxy-15β-17-oxo-estra-1,3,5(10)-trien-15-yl)-propyl]-1H-[1,2,3]triazol-4-yl}-benzoic acid methyl ester] was tested, and the “inhibition of rec. 17β-HSD1” value ([1]; 100 nM inhibitor) was 11% and the “inhibition of rec. 17β-HSD1” value ([1]; 1 µM inhibitor) was 52%.
`C[C@]12CC[C@@H]3c4ccc(O)cc4CC[C@H]3[C@@H]1[C@H](CCn1cc(-c3cccc(C(F)(F)F)c3)nn1)CC2=O` [Compound 9, 3-Hydroxy-15β-{2-[4-(3-trifluoromethyl-phenyl)-[1,2,3]triazol-1-yl]-ethyl}-estra-1,3,5(10)-trien-17-one] gave an inhibition at 0.1 µM ([1]; 100 nM inhibitor) of 84% and an inhibition at 1 µM ([1]; 1 µM inhibitor) of 93%.
Molecule `CC(C)Cc1cn(CCC[C@H]2CC(=O)[C@@]3(C)CC[C@@H]4c5ccc(O)cc5CC[C@H]4[C@H]23)nn1` [Compound 31, 3-Hydroxy-15-[3-(4-isobutyl-[1,2,3]triazol-1-yl)-propyl]-13-methyl-6,7,8,9,11,12,13,14,15,16-decahydro-cyclopenta[a]phenanthren-17-one] has an inhibition at 0.1 µM ([1]; 100 nM inhibitor) of 32% and an inhibition at 1 µM ([1]; 1 µM inhibitor) of 82%.
Molecule `C[C@]12CC[C@@H]3c4ccc(O)cc4CC[C@H]3[C@@H]1[C@H](CCCn1cc(CC3CCCCC3)nn1)CC2=O` [Compound 21, 3-Hydroxy-15β-[3-(4-cyclohexylmethyl-[1,2,3]triazol-1-yl)-propyl]-estra-1,3,5(10)-trien-17-one] has an inhibition at 0.1 µM ([1]; 100 nM inhibitor) of 50% and an inhibition at 1 µM ([1]; 1 µM inhibitor) of 86%.
Molecule `CC(C)CCc1cn(CCC[C@H]2CC(=O)[C@@]3(C)CC[C@@H]4c5ccc(O)cc5CC[C@H]4[C@H]23)nn1` [Compound 30, 3-hydroxy-15-[3-(4-isopentyl-[1,2,3]triazol-1-yl)-propyl]-13-methyl-6,7,8,9,11,12,13,14,15,16-decahydro-cyclopenta[a]phenanthren-17-one] has an inhibition at 0.1 µM ([1]; 100 nM inhibitor) of 25% and an inhibition at 1 µM ([1]; 1 µM inhibitor) of 82%.
In the case of `COc1ccc(-c2cn(CC[C@@H]3CC(=O)[C@@]4(C)CC[C@@H]5c6ccc(O)cc6CC[C@H]5[C@H]34)nn2)cc1` [Compound 11, 3-Hydroxy-15β-{2-[4-(4-methoxy-phenyl)-[1,2,3]triazol-1-yl]-ethyl}-estra-1,3,5(10)-trien-17-one], the inhibition at 0.1 µM ([1]; 100 nM inhibitor) is reported as 75% and the inhibition at 1 µM ([1]; 1 µM inhibitor) is reported as 93%.
Work on `C[C@]12CC[C@@H]3c4ccc(O)cc4CC[C@H]3[C@@H]1[C@H](CCCn1cc(-c3cc(F)cc(F)c3)nn1)CC2=O` [Compound 18, 3-Hydroxy-15ß-{3-[4-(3,5-Difluoro-phenyl)-[1,2,3]triazol-1-yl]-propyl}-estra-1,3,5(10)-trien-17-one] yielded an inhibition at 0.1 µM ([1]; 100 nM inhibitor) of 64% and an inhibition at 1 µM ([1]; 1 µM inhibitor) of 88%.
`C[C@]12CC[C@@H]3c4ccc(O)cc4CC[C@H]3[C@@H]1[C@H](CCn1cc(-c3ccc(F)cc3F)nn1)CC2=O` [Compound 3, 3-Hydroxy-15β-{2-[4-(2,4-difluoro-phenyl)-[1,2,3]triazol-1-yl]-ethyl}-estra-1,3,5(10)-trien-17-one] gave an inhibition at 0.1 µM ([1]; 100 nM inhibitor) of 86% and an inhibition at 1 µM ([1]; 1 µM inhibitor) of 96%.
`C[C@]12CC[C@@H]3c4ccc(O)cc4CC[C@H]3[C@@H]1[C@H](CCCn1cc(-c3ccc(OC(F)(F)F)cc3)nn1)CC2=O` [Compound 32, 3-Hydroxy-15β-{3-[4-(4-trifluoromethoxy-phenyl)-[1,2,3]triazol-1-yl]-propyl}-estra-1,3,5(10)-trien-17-one] gave an inhibition at 0.1 µM ([1]; 100 nM inhibitor) of 67% and an inhibition at 1 µM ([1]; 1 µM inhibitor) of 81%.

Source: patent EP2125859B1, “ESTRATRIENE DERIVATIVES AND THEIR USES AS 17BETA-HYDROXYSTEROID DEHYDROGENASE INHIBITORS” (Abbott Products GmbH, priority 2006, dated 2008)
